Holding throughout (type): biochemical
In assay [1] the target is T1, AMPK α1β1γ1 (Homo sapiens, UniProt P54619+Q13131).
T1 construct: made in house; host or cells: Sf9 insect cells (baculovirus)
Briefly: Radiometric kinase assay (SAMS peptide, 32P-ATP). The following applies: ATP 35 µM, SAMS 200 µM.

For assay [2], the target named is T1, AMPK α1β1γ1. Kind of assay: FRET-based kinase activity assay (Z'-LYTE S/T23 peptide). The settings on record: ATP 50 µM, substrate 2 µM. Here is the method:
Kinase reactions were performed in a 10 µL assay volume at room temperature in 384-well low volume plates (Corning model 3676) using the same assay buffer as the radiometric assay. Inhibitors and activators were prepared as described for the radiometric assays. Assays were performed as follows: 2.5 µL of the inhibitor or activator working stock was added to a 5 µL solution of kinase and substrate, followed by 2.5 µL of ATP to start the assay. All assays were performed in quadruplicate. The final concentration of Z’-LYTE™ S/T23 peptide substrate in the reaction was 2 µM. AMPK α1β1γ1 was used at 79 ng/mL (0.42 nM) in the inhibition experiments and 41 ng/mL (0.22 nM) in the activation experiments, at an ATP concentration of 50 µM. AMPK α2β1γ1 was used at 177 ng/mL (0.92 nM) in the inhibition experiments and 41 ng/mL (0.22 nM) in the activation experiments, at an ATP concentration of 150 µM. After one hour, 5 µL of protease solution was added to a final well volume of 15 µL. After a 1 hour incubation at room temperature the assay plate was read on a Tecan Safire plate reader using an excitation wavelength of 400 nm (12 nm bandpass), and emission wavelengths of 445 nm (12 nm bandpass) and 520 nm (12 nm bandpass). The FRET ratio was calculated as the intensity of the donor signal divided by the intensity of the acceptor signal. The extent of substrate phosphorylation was calculated from the FRET ratio as described previously.
Data analysis and curve-fitting was performed using GraphPad Prism software (GraphPad Software, Inc, San Diego CA).

Assay [3] addresses T1, AMPK α1β1γ1. Kind of assay: TR-FRET activity assay (LanthaScreen, fluorescein-CREBtide). The following applies: ATP 50 µM, substrate 400 nM, read-out: Activator EC50. (In general: Time-resolved FRET reads energy transfer from a long-lived donor to a nearby acceptor.)

As a reminder, the EC50 is the concentration giving half of the maximal effect.

T1 sequence (Q13131 whole entry): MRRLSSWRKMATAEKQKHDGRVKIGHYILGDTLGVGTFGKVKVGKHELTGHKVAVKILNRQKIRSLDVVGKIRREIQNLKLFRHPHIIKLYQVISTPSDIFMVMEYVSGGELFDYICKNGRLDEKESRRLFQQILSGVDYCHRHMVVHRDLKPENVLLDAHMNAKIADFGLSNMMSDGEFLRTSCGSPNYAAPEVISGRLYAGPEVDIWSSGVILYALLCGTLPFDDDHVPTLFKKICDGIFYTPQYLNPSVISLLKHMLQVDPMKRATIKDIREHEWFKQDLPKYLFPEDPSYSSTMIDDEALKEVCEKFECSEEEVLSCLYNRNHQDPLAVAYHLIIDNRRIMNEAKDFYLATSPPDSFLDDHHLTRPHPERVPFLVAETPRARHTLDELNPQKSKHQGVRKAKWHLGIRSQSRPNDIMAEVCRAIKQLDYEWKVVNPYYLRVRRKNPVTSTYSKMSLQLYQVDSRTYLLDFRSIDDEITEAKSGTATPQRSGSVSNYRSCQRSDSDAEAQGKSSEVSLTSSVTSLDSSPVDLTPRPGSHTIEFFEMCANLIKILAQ
T1 sequence (Q9Y478 whole entry partner): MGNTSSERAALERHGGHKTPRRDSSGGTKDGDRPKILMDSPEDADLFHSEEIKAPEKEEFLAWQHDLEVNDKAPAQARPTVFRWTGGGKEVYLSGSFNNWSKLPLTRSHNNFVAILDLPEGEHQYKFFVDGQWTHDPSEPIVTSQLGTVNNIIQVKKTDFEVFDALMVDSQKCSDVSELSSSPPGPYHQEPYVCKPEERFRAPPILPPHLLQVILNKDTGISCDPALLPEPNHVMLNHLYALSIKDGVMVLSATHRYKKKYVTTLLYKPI
T1 sequence (P54619 whole entry): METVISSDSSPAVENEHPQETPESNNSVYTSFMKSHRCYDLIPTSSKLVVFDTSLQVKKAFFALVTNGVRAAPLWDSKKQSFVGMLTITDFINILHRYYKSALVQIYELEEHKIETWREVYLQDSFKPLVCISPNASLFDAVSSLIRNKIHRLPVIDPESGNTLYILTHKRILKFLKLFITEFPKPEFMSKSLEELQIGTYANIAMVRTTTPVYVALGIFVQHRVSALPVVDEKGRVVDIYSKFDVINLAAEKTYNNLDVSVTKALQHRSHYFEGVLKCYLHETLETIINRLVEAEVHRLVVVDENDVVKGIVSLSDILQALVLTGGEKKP

As to `Nc1ncnc2c1ncn2[C@@H]1O[C@H](COP(O)(O)=S)[C@@H](O)[C@H]1O` [ATMP, adenosine 5′-O-thiomonophosphate], the figures for the Max. fold-activation on AMPK α1β1γ1 [1] and on AMPK α1β1γ1 [2] were 1.7 fold and 3.3 fold, respectively. The concentration giving a half-maximal response (EC50) is 0.7 µM on AMPK α1β1γ1 [1] (read-out: Activator EC50), 0.35 µM on AMPK α1β1γ1 [2] (read-out: Activator EC50) and 0.25 µM at AMPK α1β1γ1 [3].
